PubChem BioAssay (NCI)
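Compound exposure: 48 hours, 5 concentrations, 96-well plates. TGI: total growth inhibition.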

Assays:
Experiment in all cases: DTP human tumour cell line panel, 48 h
786-0 renal = system: 786-0 renal
A498 renal = system: A498 renal
A549 NSCLC = system: A549 NSCLC
ACHN renal = system: ACHN renal
BT-549 breast = system: BT-549 breast
CAKI-1 renal = system: CAKI-1 renal
CCRF-CEM leukemia = system: CCRF-CEM leukemia
COLO 205 colon = system: COLO 205 colon
DU-145 prostate = system: DU-145 prostate
EKVX NSCLC = system: EKVX NSCLC
HCC-2998 colon = system: HCC-2998 colon
HCT-116 colon = system: HCT-116 colon
HCT-15 colon = system: HCT-15 colon
HL-60(TB) leukemia = system: HL-60(TB) leukemia
HOP-62 NSCLC = system: HOP-62 NSCLC
HOP-92 NSCLC = system: HOP-92 NSCLC
HS 578T breast = system: HS 578T breast
HT29 colon = system: HT29 colon
IGROV1 ovarian = system: IGROV1 ovarian
K-562 leukemia = system: K-562 leukemia
KM12 colon = system: KM12 colon
M14 melanoma = system: M14 melanoma
MCF7 breast = system: MCF7 breast
MDA-MB-231 breast = system: MDA-MB-231 breast
MDA-MB-435 = system: MDA-MB-435
MOLT-4 leukemia = system: MOLT-4 leukemia
NCI-H226 lung = system: NCI-H226 lung
NCI-H23 lung = system: NCI-H23 lung
NCI-H460 lung = system: NCI-H460 lung
NCI-H522 lung = system: NCI-H522 lung
NCI/ADR-RES ovarian = system: NCI/ADR-RES ovarian
OVCAR-3 ovarian = system: OVCAR-3 ovarian
OVCAR-4 ovarian = system: OVCAR-4 ovarian
OVCAR-5 ovarian = system: OVCAR-5 ovarian
OVCAR-8 ovarian = system: OVCAR-8 ovarian
PC-3 prostate = system: PC-3 prostate
RPMI-8226 leukemia = system: RPMI-8226 leukemia
RXF 393 renal = system: RXF 393 renal
SF-268 CNS = system: SF-268 CNS
SF-295 CNS = system: SF-295 CNS
SF-539 CNS = system: SF-539 CNS
SK-MEL-2 melanoma = system: SK-MEL-2 melanoma
SK-MEL-28 melanoma = system: SK-MEL-28 melanoma
SK-MEL-5 melanoma = system: SK-MEL-5 melanoma
SK-OV-3 ovarian = system: SK-OV-3 ovarian
SN12C renal = system: SN12C renal
SNB-19 CNS = system: SNB-19 CNS
SR leukemia = system: SR leukemia
SW-620 colon = system: SW-620 colon
T-47D breast = system: T-47D breast
TK-10 renal = system: TK-10 renal
U251 CNS = system: U251 CNS
UACC-257 melanoma = system: UACC-257 melanoma
UACC-62 melanoma = system: UACC-62 melanoma
UO-31 renal = system: UO-31 renal

Measured: TGI

CC(C)(C)OC(=O)N(CCCN)CCCCN
> 100 µM: 786-0 renal | A498 renal | A549 NSCLC | ACHN renal | BT-549 breast | CAKI-1 renal | CCRF-CEM leukemia | COLO 205 colon | DU-145 prostate | EKVX NSCLC | HCC-2998 colon | HCT-116 colon | HCT-15 colon | HL-60(TB) leukemia | HOP-62 NSCLC | HOP-92 NSCLC | HS 578T breast | HT29 colon | IGROV1 ovarian | K-562 leukemia | KM12 colon | M14 melanoma | MCF7 breast | MDA-MB-231 breast | MDA-MB-435 | MOLT-4 leukemia | NCI-H226 lung | NCI-H23 lung | NCI-H460 lung | NCI-H522 lung | NCI/ADR-RES ovarian | OVCAR-3 ovarian | OVCAR-4 ovarian | OVCAR-5 ovarian | OVCAR-8 ovarian | PC-3 prostate | RPMI-8226 leukemia | RXF 393 renal | SF-268 CNS | SF-295 CNS | SF-539 CNS | SK-MEL-2 melanoma | SK-MEL-28 melanoma | SK-MEL-5 melanoma | SK-OV-3 ovarian | SN12C renal | SNB-19 CNS | SR leukemia | SW-620 colon | T-47D breast | TK-10 renal | U251 CNS | UACC-257 melanoma | UACC-62 melanoma | UO-31 renal
